Results taken from ChEMBL document CHEMBL1201862, “PubChem BioAssay data set” (2004).
Active and inactive are the calls of the source.

Key:
[1] = tested on: H9c2; test: cells; assay type: functional, cell-based; conditions: Rattus norvegicus, H9c2, Myocardium;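 further: confirmatory concentration-response retest of ultra-high-throughput screening hits for modulation of myocardial damage; cell death induced by hydrogen peroxide oxidative stress; compound pretreatment for 60 min then peroxide exposure for 2 h; potency is for protecting the cells against peroxide damage rather than for killing them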
[2] = biological target: Nonstructural protein 1 (Influenza A virus, UniProt Q194T2); assay type: functional, Influenza A virus (A/California/07/2009(H1N1))
[3] = tested on: HEK293; test: EBV LMP1 TES2 canonical NF-kB signalling blockers – cell-based, HEK293, luciferase, cherry-pick, dose response (AID 588343); assay type: functional; conditions: Homo sapiens
[4] = biological target: Heat shock protein HSP 90-alpha (Homo sapiens, UniProt P07900); assay type: functional, organism-based
[5] = tested on: Vero; test: cells; assay type: functional, cell-based, Chlorocebus sabaeus; conditions: Chlorocebus sabaeus, Vero
[6] = tested on: Vero; test: cells; assay type: functional, Chlorocebus sabaeus; conditions: Chlorocebus sabaeus, Vero
[7] = biological target: T1, Corticotropin-releasing factor receptor 2/Corticotropin-releasing factor-binding protein (Homo sapiens, UniProt P24387+Q13324); test: Dose Response confirmation of uHTS hits for small molecule antagonists of the CRF-binding protein and CRF-R2 receptor complex.; assay type: functional; conditions: read-out: IC50_Mean
T1 sequence (Q13324 whole entry): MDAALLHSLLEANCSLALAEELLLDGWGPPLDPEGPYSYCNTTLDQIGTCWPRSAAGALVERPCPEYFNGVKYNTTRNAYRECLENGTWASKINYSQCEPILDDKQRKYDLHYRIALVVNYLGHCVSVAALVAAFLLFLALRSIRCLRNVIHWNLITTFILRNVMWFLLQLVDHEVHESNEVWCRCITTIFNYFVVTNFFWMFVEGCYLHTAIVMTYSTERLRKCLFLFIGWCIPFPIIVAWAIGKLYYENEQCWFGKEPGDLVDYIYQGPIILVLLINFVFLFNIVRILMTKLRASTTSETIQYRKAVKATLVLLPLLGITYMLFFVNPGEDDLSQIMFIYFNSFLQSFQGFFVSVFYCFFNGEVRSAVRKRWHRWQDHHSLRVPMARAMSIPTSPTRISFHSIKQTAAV
T1 sequence (P24387 whole entry): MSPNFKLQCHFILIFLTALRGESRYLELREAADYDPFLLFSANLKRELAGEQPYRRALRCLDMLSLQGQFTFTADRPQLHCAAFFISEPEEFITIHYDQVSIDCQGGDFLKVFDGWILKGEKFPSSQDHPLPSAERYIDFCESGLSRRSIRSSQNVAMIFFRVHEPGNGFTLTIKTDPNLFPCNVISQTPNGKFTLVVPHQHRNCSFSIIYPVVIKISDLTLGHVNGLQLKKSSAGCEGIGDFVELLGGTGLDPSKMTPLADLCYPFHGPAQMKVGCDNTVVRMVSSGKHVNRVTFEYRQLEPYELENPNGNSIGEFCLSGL

[8] = biological target: T1, Corticotropin-releasing factor receptor 2/Corticotropin-releasing factor-binding protein; test: activators of CRF receptor 2 with binding protein – uHTS hits, confirmation (AID 602473); assay type: functional; conditions: read-out: EC50_Mean
[9] = viability of uninfected HEp-2 cells – cell-based, HTS, cytotoxicity control for RSV inhibitor project, dose response (AID 2410); assay type: functional; conditions: human respiratory syncytial virus
[10] = biological target: 26S proteasome non-ATPase regulatory subunit 14 (Homo sapiens, UniProt O00487); test: inhibition of proteasome subunit RPN11 – biochemical, fluorescence polarization, uHTS hits, confirmation (AID 602368); assay type: functional
[11] = biological target: 72 kDa type IV collagenase (Homo sapiens, UniProt P08253); test: Dose Response validation of uHTS RPN11 inhibitor hits using a MMP-2 Fluorescence assay.; assay type: functional
[12] = biological target: Prothrombin (Bos taurus, UniProt P00735); test: thrombin protease inhibitors – biochemical, fluorescence polarization, uHTS hits, dose response (AID 602369); assay type: functional
[13] = biological target: Paired box protein Pax-8 (Homo sapiens, UniProt Q06710); test: PAX8 transcriptional activity inhibition in RMG-I – RMG-I cells, luciferase, cherry-pick, dose response (AID 687027); assay type: functional, cell-based;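 further: luciferase reporter driven by Pax8 target thyroperoxidase promoter measured by SteadyGlo luminescence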
[14] = OVCAR-3 cell viability loss – plate reader, dry powder samples, PAX8 inhibitor project, dose response (AID 743044); assay type: functional, cell-based
[15] = IGROV1 cell killing – plate reader, dry powder samples, PAX8 inhibitor project, dose response (AID 743043); assay type: functional, cell-based; conditions: IGROV-1
[16] = luciferase reporter signal suppression in cells – H4 neuroglioma cells, luminescence, dose response (AID 1990); assay type: functional, cell-based
[17] = cells; assay type: functional, cell-based
[18] = Luminescence Cell-Based Dose Response HTS to Identify Inhibitors of 5'UTR Stem-Loop Driven Prion Protein mRNA Translation in H4 Neuroglioblastoma Cells. [Related pubchem assays: 1827 (Project Summary), 1813 (Primary HTS)]; assay type: functional
[19] = alpha-synuclein stem-loop luciferase translation blockers – H4 neuroglioma cells, luminescence, confirmation (AID 1988); assay type: functional, cell-based
[20] = cells; assay type: functional, cell-based; remark: listed apart in the source
[21] = tested on: Vero; test: viability of Vero cells under compound – cytotoxicity control for flavivirus capping enzyme inhibitors (AID 588742); assay type: functional; conditions: Chlorocebus sabaeus
[22] = reduction of Shn3 3'UTR-driven luciferase in osteoblasts – cell-based, Clone20 osteoblasts, firefly luciferase, cherry-picked, dose response (AID 624132); assay type: functional;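 further: firefly luciferase luminescence from reporter carrying the Shn3 3'UTR in osteoblasts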
[23] = loss of viability in HepG2 cells – cell-based, CellTiter-Glo, cherry-picked, cytotoxicity control for Shn3 inhibitor project, dose response (AID 624134); assay type: functional
[24] = non-specific 3'UTR reporter inhibition in Clone20-Shn3RL – cell-based, Renilla luciferase, cherry-picked, counter-screen for Shn3 inhibitor project, dose response (AID 624133); assay type: functional

Chain of 26S proteasome non-ATPase regulatory subunit 14 (O00487 whole entry): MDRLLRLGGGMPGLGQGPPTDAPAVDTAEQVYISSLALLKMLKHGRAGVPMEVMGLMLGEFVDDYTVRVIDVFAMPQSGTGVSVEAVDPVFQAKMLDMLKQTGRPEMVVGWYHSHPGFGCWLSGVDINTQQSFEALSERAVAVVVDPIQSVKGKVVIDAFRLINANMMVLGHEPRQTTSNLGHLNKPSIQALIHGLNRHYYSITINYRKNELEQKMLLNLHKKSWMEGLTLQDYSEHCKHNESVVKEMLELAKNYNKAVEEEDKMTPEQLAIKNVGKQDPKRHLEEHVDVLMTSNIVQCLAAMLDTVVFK
Chain of 72 kDa type IV collagenase (P08253 whole entry): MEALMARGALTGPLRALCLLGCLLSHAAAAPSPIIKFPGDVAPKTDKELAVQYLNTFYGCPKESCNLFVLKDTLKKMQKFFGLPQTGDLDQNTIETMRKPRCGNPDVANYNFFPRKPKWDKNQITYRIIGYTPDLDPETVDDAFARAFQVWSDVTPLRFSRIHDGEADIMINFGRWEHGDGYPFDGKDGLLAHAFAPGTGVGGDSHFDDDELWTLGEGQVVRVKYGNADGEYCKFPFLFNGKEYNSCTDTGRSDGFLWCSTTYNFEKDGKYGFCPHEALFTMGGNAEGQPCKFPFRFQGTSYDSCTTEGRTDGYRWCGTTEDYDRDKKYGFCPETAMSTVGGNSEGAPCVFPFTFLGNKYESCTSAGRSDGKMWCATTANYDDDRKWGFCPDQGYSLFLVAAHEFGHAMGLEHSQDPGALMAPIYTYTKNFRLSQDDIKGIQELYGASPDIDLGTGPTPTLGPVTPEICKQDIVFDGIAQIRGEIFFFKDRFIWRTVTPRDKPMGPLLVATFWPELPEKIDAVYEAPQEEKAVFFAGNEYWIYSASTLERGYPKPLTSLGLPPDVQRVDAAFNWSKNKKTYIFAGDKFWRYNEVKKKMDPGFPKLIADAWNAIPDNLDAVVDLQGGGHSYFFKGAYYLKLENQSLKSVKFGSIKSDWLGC
Chain of Nonstructural protein 1 (Q194T2 whole entry): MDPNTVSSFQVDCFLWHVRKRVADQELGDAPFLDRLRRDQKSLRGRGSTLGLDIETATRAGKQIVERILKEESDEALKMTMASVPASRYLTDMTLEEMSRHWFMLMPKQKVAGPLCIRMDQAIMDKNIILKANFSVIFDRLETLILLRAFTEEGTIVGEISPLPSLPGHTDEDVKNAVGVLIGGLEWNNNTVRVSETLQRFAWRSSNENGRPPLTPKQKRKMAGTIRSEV
Chain of Paired box protein Pax-8 (Q06710 whole entry): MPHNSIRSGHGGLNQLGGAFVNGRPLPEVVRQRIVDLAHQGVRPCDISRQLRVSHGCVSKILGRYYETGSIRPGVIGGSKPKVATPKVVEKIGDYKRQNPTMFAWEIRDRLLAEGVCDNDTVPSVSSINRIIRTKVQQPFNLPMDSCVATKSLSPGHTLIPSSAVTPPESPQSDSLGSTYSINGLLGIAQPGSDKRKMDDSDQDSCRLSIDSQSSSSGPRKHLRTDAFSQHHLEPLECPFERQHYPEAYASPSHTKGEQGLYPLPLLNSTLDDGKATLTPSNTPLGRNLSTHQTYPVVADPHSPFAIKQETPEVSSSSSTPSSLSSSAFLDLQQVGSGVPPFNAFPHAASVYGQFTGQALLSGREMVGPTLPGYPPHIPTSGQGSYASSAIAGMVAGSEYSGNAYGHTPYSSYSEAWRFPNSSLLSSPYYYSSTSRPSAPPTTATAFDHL

Question: For `O=C(COC(=O)Cn1[nH]c(=O)c2ccccc2c1=O)NNC(=O)c1ccc(Br)cc1`, which IC50 [1] is on record?
Answer: 17.2 µM (active)

Question: Which IC50 [2] does the source give for `CC(=NNc1nc2ccccc2o1)c1ncccn1` here?
Answer: 0.739 µM (active)

Question: And the AC50 [3]?
Answer: 1.23 µM (active)

Question: And the AC50 [4]?
Answer: 1.97 µM (active)

Question: And the IC50 [5]?
Answer: > 25 µM (active)

Question: And the CC50 [6]?
Answer: 1.34 µM (active)

Question: With `O=C(Nc1ccccc1)c1nc[nH]c1C(=O)NCCCCCCNC(=O)c1[nH]cnc1C(=O)Nc1ccccc1` as the compound, how does the IC50 [1] read?
Answer: > 79 µM (inactive)

Question: With `CCN1CCN(c2nc(O)c3c(n2)CCC3)CC1` as the compound, how does the IC50 [1] read?
Answer: > 79 µM (inactive)

Question: For `COc1ccc(C=C2OC(O)=C(C(C)=O)C2=O)cc1`, which AC50 [3] is on record?
Answer: 6.16 µM (active)

Question: With `Cc1cccc(N2CCN(C(=O)CCc3nc(O)c4ccccc4n3)CC2)c1C` as the compound, how does the IC50 [1] read?
Answer: > 79 µM (inactive)

Question: What about the IC50 [7] of the same compound?
Answer: > 47.1 µM (inactive)

Question: What about the EC50 [8] of the same compound?
Answer: > 53 µM (inactive)

Question: Which results are given for `N#C/C(=C\C1=C(N2CCOCC2)C(=C\c2ccc(Cl)cc2)/CC1)C(=O)Nc1ccccc1F`?
Answer: CC50 [9]: 18.3 µM (active); IC50 [10]: 6.46 µM (active); IC50 [11]: > 100 µM (inactive); IC50 [12]: 17 µM (active)

Question: Which IC50 [10] does the source give for `O=C(N/N=C/c1ccc(Cl)cc1Cl)c1ccc2[nH]cnc2c1` here?
Answer: 20.9 µM (active)

Question: And the IC50 [11]?
Answer: > 100 µM (inactive)

Question: What about the IC50 [12] of the same compound?
Answer: 51.7 µM (active)

Question: What does the source list for `C[C@H]1CCCCO[C@H](CN(C)C(=O)Nc2ccc(C(F)(F)F)cc2)[C@@H](C)CN([C@@H](C)CO)C(=O)c2cc(NC(=O)CCC(F)(F)F)ccc2O1`?
Answer: AC50 [13]: 6.57 µM (active); AC50 [14]: 39.9 µM (active); AC50 [15]: 54.7 µM (active)

Question: Which EC50 [16] does the source give for `COc1ccc(C(NC(=O)c2cccnc2)c2cc(Cl)c3cccnc3c2O)cc1OC` (stereo unspecified) here?
Answer: 13.3 µM (active)

Question: And the EC50 [17]?
Answer: 14.2 µM (active)

Question: What about the EC50 [18] of the same compound?
Answer: 0.297 µM (active)

Question: What about the EC50 [19] of the same compound?
Answer: > 120 µM (not active)

Question: What about the EC50 [20] of the same compound?
Answer: > 350 µM (not active)

Question: And the CC50 [21]?
Answer: 3.92 µM (active)

Question: And the AC50 [22]?
Answer: 1.88 µM (active)

Question: What about the AC50 [23] of the same compound?
Answer: 2.7 µM (active)

Question: And the AC50 [24]?
Answer: 1.14 µM (active)
